This note sets out measurements from the METLIN SMRT retention time set (Domingo-Almenara et al. 2019).

The series in a line: gradient 5% acetonitrile 3 min, to 50% in 2 min, to 85% in 15 min, held 3 min, 100 µL/min. To be noted: column: Zorbax Extend-C18 2.1 x 50 mm; eluents: water / acetonitrile, 0.1% formic acid. In a few lines: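 Using water and acetonitrile that each contained 0.1% formic acid, mixtures of ~100 pure standards were separated at 100 μL/min on a Zorbax Extend-C18 column (2.1 × 50 mm, 1.8 μm). The HPLC fed a quadrupole time-of-flight mass spectrometer working in positive and negative ionization mode, with dead and dwell volumes of 40 μL and 900 μL. Data were acquired over 3 months. Retention time was read from computationally picked adduct peaks after manual inspection of each.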
With `Cc1ccc(C2CCCN2C(=O)c2cc(-c3ccco3)on2)cc1` (centres undefined), the RP-LC retention time came to 1020 s. The molecule `COCCn1nc(N2CCCC(NS(=O)(=O)c3c(C)nn(C)c3C)C2)ccc1=O` (centres undefined) gave an RP-LC retention time of 622 s. The figure for `NC(=O)[C@@H]1C[C@H](Oc2ccccc2)CN1C1CCC1` is 571 s; for `Cc1ccc(Nc2c(-c3ccc(N(C)C)cc3)nc3c(C)cccn23)cc1` it is 805 s. As for `CC(C)NC(=O)c1cc2cc(Br)ccc2[nH]1`, the RP-LC retention time turned out to be 879 s. Next, `CCN1CCN(CCNC(=O)C(C)n2c3ccccc3c3cnn(C)c(=O)c32)CC1` (centres undefined): 544 s; `CC(C)(C)C(=O)Nc1nc2cc3c(cc2s1)OCO3`: 823 s; `CCCn1c(=O)sc2cc(S(=O)(=O)N3CCC(C(=O)Nc4ccc(C)cc4C)CC3)ccc21`: 997 s. Consider `CCOC(=O)Cn1nc2ccc(S(=O)(=O)N3CCC(C)CC3)cn2c1=O`, for which the RP-LC retention time is 877 s.

For the molecule `Cc1nn(C2CCS(=O)(=O)C2)c2nc(-c3ccco3)cc(C(=O)NCC3CCCO3)c12` (centres undefined), the RP-LC retention time amounted to 683 s. On to `Cc1ccc(-c2cc(C(=O)NC3CC3)n(C)c2)cc1`, for which the RP-LC retention time turned out to be 915 s.

Molecule `COc1ccc(-n2ccc(=O)c(-c3nc(-c4ccccc4)no3)n2)cc1` gave an RP-LC retention time of 856 s. In turn, `O=C(Cn1c(=O)c(CCC(=O)NC2CCCC2)nc2ccccc21)Nc1ccc(F)c(Cl)c1` came in with an RP-LC retention time of 672 s.

Turning to `COc1cccc(NC(=O)Cn2cccc2-c2nnc(-c3ccccc3)o2)c1`, the RP-LC retention time stood at 940 s. For `Cn1c(C2CCN(C(=O)Nc3ccccc3Br)CC2)cc(=O)n2nccc12`, the RP-LC retention time stood at 654 s.

With `CC(C)c1ccc(CNC(=O)[C@@]23CCCC[C@H]2N(C)C(=O)CC3)cc1`, the RP-LC retention time was found to be 786 s.

In the case of `CCc1ccc(N2C(=O)N(CC(=O)N3CCOc4ccc(C)cc43)C3CS(=O)(=O)CC32)cc1` (centres undefined), the RP-LC retention time turned out to be 966 s. As for `CCCn1c(=O)c(C)nc2cc(-c3noc(Cc4cccc(F)c4)n3)ccc21`, the RP-LC retention time is 1090 s. The molecule `CC(=O)c1cccc(NC(=O)CN2C(=O)NC3(CCC(C)CC3)C2=O)c1` (centres undefined) displayed an RP-LC retention time of 746 s. In turn, `COC(=O)C1=C(C)NC2=C(C(=O)CC(C)(C)C2)C1c1cc(OC)c(OC)c(OC)c1` (centres undefined) yielded an RP-LC retention time of 684 s. `Cc1ncsc1CN1CCC(Oc2ccccc2-c2nc(-c3ccccc3)no2)C1` (centres undefined) displayed an RP-LC retention time of 732 s.

The molecule `COc1cc(/C=C2\CCCN([C@@H](C)c3ccc(F)cc3)C2=O)ccc1-n1cnc(C)c1` returned an RP-LC retention time of 834 s.

For `CCn1c(=O)c2ccccc2n(Cc2nc(-c3ccc(C(F)(F)F)cc3)no2)c1=O`, the RP-LC retention time was determined as 1120 s. Consider `CC(Oc1ccc(-c2cnc3ccccc3n2)cc1)C(=O)NCCN(C)C` (centres undefined), for which the RP-LC retention time was found to be 634 s. In the case of `COc1ccc(NC(=O)CCCSc2ccc(F)cc2)c([N+](=O)[O-])c1`, the RP-LC retention time is 983 s. In the case of `Cc1ccn2cc(-c3ccc(NS(=O)(=O)c4cc(C(C)C)ccc4C)cc3)nc2n1`, the RP-LC retention time is 745 s. In the case of `CCc1nnc(-c2cc(S(=O)(=O)NCCCc3ccccc3)cn2C)o1`, the RP-LC retention time was found to be 864 s. As to `O=C(c1cc(-c2ccccn2)n[nH]1)N1CCCC(C(=O)N2CCc3ccccc32)C1` (centres undefined), the RP-LC retention time worked out at 713 s. In the case of `COCc1nc(NCc2ccc3c(c2)OCO3)ncc1C(=O)O`, the RP-LC retention time came to 673 s. With `COc1nc2ccccc2nc1N1CCCC(C(=O)N2CCC(C)CC2)C1` (centres undefined), the RP-LC retention time worked out at 1110 s. The figure for `Cc1ncsc1C1N(C2CCN(Cc3cn(C)c4ccccc34)CC2)C(=O)C12CCCC2` (centres undefined) is 693 s; for `COc1ccc(OC)c(S(=O)(=O)N2CCC(n3cnc4c(C)cccc4c3=O)CC2)c1` it is 918 s; for `O=C(NCCCN1CCCCC1)c1cc(=O)n2c(nc3ccccc32)s1` it is 621 s.

As for `CCc1nn2c(CNS(=O)(=O)c3cc(F)ccc3F)c(-c3ccccc3)nc2s1`, the RP-LC retention time was found to be 929 s. For the molecule `CCCCNc1nc(NCC)nc(-n2cnc(SC)n2)n1`, the RP-LC retention time turned out to be 880 s.

`COc1ccccc1C(=O)N1CCc2cn(C)c3cccc(c23)C1` had an RP-LC retention time of 920 s. `Cc1ccc(NC(=O)CN2CCC(c3nc(-c4cccs4)no3)CC2)c(C)c1` had an RP-LC retention time of 718 s. Consider `CCN1CCN(CCCNc2ccc(-c3nc(-c4ccc(C)cc4)no3)cn2)CC1`, for which the RP-LC retention time stood at 646 s. Turning to `O=S(=O)(c1cc(-c2nnc(C3CC3)o2)co1)N1CCOCC1`, the RP-LC retention time came to 730 s. In turn, `Fc1ccc(-c2noc(-c3ccc(N4CCCC4)nc3)n2)cc1` came in with an RP-LC retention time of 1040 s. Molecule `Cc1ccccc1-c1nc2cnccn2c1NCCC(=O)NC1CC1` had an RP-LC retention time of 568 s.

Consider `Cc1cc(N2CCN(C)CC2)nc2ccc(NC(=S)NC3CCCc4ccccc43)cc12` (centres undefined), for which the RP-LC retention time was found to be 632 s. Take `Cc1nc(-c2ccc(C(=O)N3CCC(C)CC3)cc2)cs1`: the RP-LC retention time amounted to 904 s. With `Cc1nnc2ccc(-c3noc(-c4ccccc4F)n3)cn12`, the RP-LC retention time was determined as 770 s.

Turning to `CCNC(=O)C1CCN(c2nc3ccc(-c4ccsc4)nc3s2)CC1`, the RP-LC retention time amounted to 799 s.

Molecule `O=C(c1ccc(-c2ccc3c(c2)CCN3S(=O)(=O)c2ccccc2)cc1)N1CCOCC1` showed an RP-LC retention time of 885 s.

On to `CCOC(=O)c1cc(S(=O)(=O)N2CCCC2C(=O)N(Cc2ccco2)C2CCCC2)cn1C` (centres undefined), for which the RP-LC retention time was 992 s.

In turn, `COc1ccc(-c2nc(-c3cn(Cc4ccc(C)cc4)nn3)no2)cc1OC` returned an RP-LC retention time of 961 s. Next, `COc1ccc(CCNC(=O)COc2cc(=O)n3ccccc3n2)cc1`: 631 s; `CCCN(CCC)C(=O)C1CCN(S(=O)(=O)c2ccc3c(c2)CCCC(=O)N3)CC1`: 694 s. Consider `COc1cccc(-n2c(=O)c(C(=O)NCCc3ccccc3)c(O)c3cccnc32)c1`, for which the RP-LC retention time is 1200 s.

As to `CCN(CC)C(=O)c1ccc(-c2nc3cc(NS(=O)(=O)c4ccc(F)cc4F)ccc3n2C)cc1`, the RP-LC retention time was 710 s. The molecule `CCCS(=O)(=O)NCCN1C(=O)C2(CCCCC2)C1c1ccccc1` (centres undefined) showed an RP-LC retention time of 898 s. Consider `O=C(Nc1ccccc1)C1CCCN(S(=O)(=O)Cc2ccccc2Cl)C1` (centres undefined), for which the RP-LC retention time amounted to 976 s. `COc1ccc(CSc2nccc3c2ccn3CC(=O)NCc2ccco2)cc1` gave an RP-LC retention time of 686 s. The figure for `CCc1noc(NC(C)=O)c1-c1ccc(OC)c(S(=O)(=O)Nc2ccc(C)cc2)c1` is 784 s; for `Cc1nnc(C2CC3(CCN(Cc4ccccc4)CC3)CN2CCc2ccccc2)o1` (centres undefined) it is 638 s. Consider `Cn1c(=O)c2cc(C(=O)N3CCN(C(=O)c4ccco4)CC3)sc2n(C)c1=O`, for which the RP-LC retention time is 574 s. `COc1ccc(C(O)CN2CCN(c3ccccn3)CC2)cc1` (centres undefined) showed an RP-LC retention time of 540 s. As to `O=C(COc1ccc(F)cc1)Nc1ccc2c(c1)CCC(=O)N2`, the RP-LC retention time came out at 705 s. Next, `COc1cccc(-c2nc(Cn3c(C)nc4ccccc4c3=O)no2)c1OC`: 816 s; `COc1ccccc1N1CCN(c2ncc(C(=O)Nc3ccccc3)c(N)n2)CC1`: 742 s. `O=C1C2C3C=CC(C3)C2C(=O)N1CCN1CCN(Cc2ccc([N+](=O)[O-])cc2)CC1` (centres undefined) came in with an RP-LC retention time of 563 s. The figure for `CC(=O)N1CCC2(CC1)OC(=O)C(C)=C2C(=O)NCCCN(Cc1ccccc1)C(C)C` is 580 s; for `Cc1oc2c(c1C(=O)Nc1ccc(F)c(F)c1)C1=NC(C)(C)CN1C=N2` it is 655 s; for `CCn1nc(C)c(-c2cc(C(=O)NCC34CCC=C3N(C)C(=O)CC4)no2)c1C` (centres undefined) it is 741 s.

Molecule `N#Cc1ccc(C(=O)N2CC(n3cc(C(=O)NCC4CC4)nn3)C2)cc1` returned an RP-LC retention time of 701 s. As to `COc1ccc(-c2nnc(COc3cccc(NC(=O)C(NC(=O)c4ccco4)C(C)C)c3)o2)cc1` (centres undefined), the RP-LC retention time is 1010 s.

In the case of `CCN1CCN(CCNC(=O)Cn2c(=O)n(-c3ccc(F)cc3)c3ncccc32)CC1`, the RP-LC retention time stood at 583 s. The figure for `CCc1nc(-c2cccc(-c3noc(CNS(=O)(=O)c4ccc(F)cc4)n3)c2)cs1` is 1060 s; for `COCCNS(=O)(=O)c1cc2c(cc1C)CCN2C(C)=O` it is 657 s. `CSc1ccc(NC(=O)N2CCN(c3ccc(C(F)(F)F)cn3)CC2)cc1` showed an RP-LC retention time of 1010 s. `Cc1c2cnn(CC(=O)NCc3ccc4c(c3)OCO4)c(=O)c2c(C)n1Cc1cccc(Cl)c1` showed an RP-LC retention time of 880 s. Take `COC1CCN(CC2CCCCCN2C(=O)c2ccoc2)CC1` (centres undefined): the RP-LC retention time is 596 s. `CCOC(=O)c1c(C)c(C(=O)Nc2cccc(C)c2C)c(C)n1C` yielded an RP-LC retention time of 882 s. The molecule `COC(=O)c1cccc(NC(=O)N2C[C@@H]3C[C@H](NC(=O)c4ccccc4)[C@H]2C3)c1` came in with an RP-LC retention time of 836 s. The figure for `CCOC(=O)COC(=O)c1cn(-c2cccc(C)c2)c(=O)c2ccccc12` is 718 s; for `O=C(O)c1cc2nc(-c3ccc(Cl)cc3)cc(C(F)(F)F)n2n1` it is 927 s. The figure for `Cc1ccc(Nc2nc(C(=O)NCc3cccnc3)nc3ccccc23)cc1` is 609 s.
